The target in the assay is T1, JNK1 (Homo sapiens, UniProt P45983).
T1 construct: purchased Carna Biosciences
As to the kind of experiment: JNK1 biochemical assays (one or more of: time resolved fluorescence, Z'-LYTE Cascade, radioactive).

The mark [1] stands for this setting: one or more of the JNK1 biochemical assays, read-out: Act. Level (JNK1 IC50 activity level).
[2] abbreviates: tested in one or more of the JNK1 biochemical assays, read-out: Act. Level (JNK1 biochemical assay IC50 activity level).
[3] abbreviates: Table 2, JNK1 IC50 activity level, read-out: Act. Level.

Like-named read-outs stand apart in the source and are kept apart here. Where only a bound is given, the exact number is not on record here.

T1 sequence (P45983 whole entry): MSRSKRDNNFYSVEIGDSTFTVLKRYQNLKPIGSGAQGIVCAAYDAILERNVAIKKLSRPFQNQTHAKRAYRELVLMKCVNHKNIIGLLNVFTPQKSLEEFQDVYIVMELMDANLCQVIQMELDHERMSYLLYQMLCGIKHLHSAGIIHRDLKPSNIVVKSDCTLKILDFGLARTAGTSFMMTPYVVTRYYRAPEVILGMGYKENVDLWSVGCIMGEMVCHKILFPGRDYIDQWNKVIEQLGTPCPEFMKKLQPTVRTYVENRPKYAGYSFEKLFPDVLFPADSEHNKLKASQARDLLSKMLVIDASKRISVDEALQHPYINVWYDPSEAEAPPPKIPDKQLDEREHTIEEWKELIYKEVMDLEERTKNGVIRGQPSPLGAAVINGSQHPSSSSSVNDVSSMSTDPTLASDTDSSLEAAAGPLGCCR

Turning to `C[C@@H]1CC[C@@H](Nc2nc(NC3(C)CCC3)ncc2C(N)=O)C[C@H]1O` [Example 287, 4-((1R,3R,4R)-3-hydroxy-4-methylcyclohexylamino)-2-(1-methylcyclobutylamino)pyrimidine-5-carboxamide], the IC50 under setting [1] was below 200 nM.

Take `CC1(Nc2nc(N[C@H]3CC[C@H](OCC(F)(F)F)CC3)ncc2C(N)=O)CCC1` [Example 415, 4-(1-methylcyclobutylamino)-2-((1r,4r)-4-(2,2,2-trifluoroethoxy)cyclohexylamino)pyrimidine-5-carboxamide]: the IC50 under setting [1] was below 200 nM.

Regarding `CO[C@H]1CC[C@H](Nc2ncc(C(N)=O)c(N[C@@H]3CCNC(=O)C3)n2)CC1` [Example A-26, 2-((1r,4R)-4-methoxycyclohexylamino)-4-((R)-2-oxopiperidin-4-ylamino)pyrimidine-5-carboxamide], the IC50 under setting [2] is 200 to 800 nM.

Consider `NC(=O)c1cnc(N[C@H]2CC[C@H](O)CC2)nc1NC1CCCCC1` [Example A-144, 4-(cyclohexylamino)-2-((1r,4r)-4-hydroxycyclohexylamino)pyrimidine-5-carboxamide], for which the IC50 under setting [2] is below 200 nM.

Regarding `C[C@]1(O)CCCC(Nc2nc(NC34CCC(F)(CC3)CC4)ncc2C(N)=O)C1` (stereo partly drawn) [Example 321, 2-(4-fluorobicyclo[2.2.2]octan-1-ylamino)-4-((3S)-3-hydroxy-3-methylcyclohexylamino)pyrimidine-5-carboxamide], the IC50 under setting [1] is below 200 nM.

For the molecule `CC[C@H](C)Nc1ncc(C(N)=O)c(N[C@@H]2CC[C@@H](C)[C@H](O)C2)n1` [Example 398, 2-(sec-butylamino)-4-((1R,3R,4R)-3-hydroxy-4-methylcyclohexylamino)pyrimidine-5-carboxamide], under setting [1], the IC50 was below 200 nM.

Regarding `COC12CCC(Nc3ncc(C(N)=O)c(N[C@@H]4CCC[C@H](O)C4)n3)(CC1)CC2` [Example 231, 4-((1R,3S)-3-hydroxycyclohexylamino)-2-(4-methoxybicyclo[2.2.2]octan-1-ylamino)pyrimidine-5-carboxamide], the IC50 under setting [1] is below 200 nM.

Regarding `NC(=O)c1cnc(NC2CCC(F)(F)CC2)nc1N[C@@H]1CCCC[C@H](O)C1` [Example A-192, 2-(4,4-difluorocyclohexylamino)-4-((1R,3S)-3-hydroxycycloheptylamino)pyrimidine-5-carboxamide], the IC50 under setting [2] is below 200 nM.

As to `CCO[C@H]1CC[C@H](Nc2ncc(C(N)=O)c(N[C@H]3CCC[C@@H](O)C3)n2)CC1` [Example A-59, 2-((1r,4S)-4-ethoxycyclohexylamino)-4-((1S,3R)-3-hydroxycyclohexylamino)pyrimidine-5-carboxamide], the IC50 under setting [2] was below 200 nM.

`C[C@@H]1CC[C@@H](Nc2nc(NC34CC(C3)C4)ncc2C(N)=O)C[C@H]1O` [Example 264, 2-(bicyclo[1.1.1]pentan-1-ylamino)-4-((1R,3R,4R)-3-hydroxy-4-methylcyclohexylamino)pyrimidine-5-carboxamide]: the IC50 under setting [1] was below 200 nM.

On to `CC12CC(Nc3nc(N[C@H]4CC[C@H](O)CC4)ncc3C(N)=O)(C1)C2` [Example 393, 2-((1r,4r)-4-hydroxycyclohexylamino)-4-(3-methylbicyclo[1.1.1]pentan-1-ylamino)pyrimidine-5-carboxamide], for which the IC50 under setting [1] was below 200 nM.

In the case of `CCO[C@H]1CC[C@H](Nc2ncc(C(N)=O)c(NC(C)(C)C(C)C)n2)CC1` [Example 273, 4-(2,3-dimethylbutan-2-ylamino)-2-((1r,4r)-4-ethoxycyclohexylamino)pyrimidine-5-carboxamide], the IC50 under setting [1] is below 200 nM.

`CC(C)CC(=O)N1CCC(Nc2nc(N[C@@H]3CC[C@@H](O)C3)ncc2C(N)=O)CC1` [Example A-86, 2-((1R,3R)-3-hydroxycyclopentylamino)-4-(1-(3-methylbutanoyl)piperidin-4-ylamino)pyrimidine-5-carboxamide]: the IC50 under setting [2] lay within 200 to 800 nM.

As for `CC(C)Nc1nc(NC23CCC(F)(CC2)CC3)ncc1C(N)=O` [Example 253, 2-(4-fluorobicyclo[2.2.2]octan-1-ylamino)-4-(isopropylamino)pyrimidine-5-carboxamide], the IC50 under setting [1] is below 200 nM.

`NC(=O)c1cnc(NC23CCC(O)(CC2)CC3)nc1N[C@@H]1CCC[C@H](O)C1` [Example 229, 2-(4-hydroxybicyclo[2.2.2]octan-1-ylamino)-4-((1R,3S)-3-hydroxycyclohexylamino)pyrimidine-5-carboxamide]: the IC50 under setting [1] is below 200 nM.

`CC(C)(C)C12CC(Nc3nc(N[C@H]4CC[C@H](O)CC4)ncc3C(N)=O)(C1)C2` [Example 493, 4-(3-tert-butylbicyclo[1.1.1]pentan-1-ylamino)-2-((1r,4r)-4-hydroxycyclohexylamino)pyrimidine-5-carboxamide]: the IC50 under setting [1] is below 200 nM.

With `NC(=O)c1cnc(NC2CCOCC2)nc1N[C@@H]1CCC[C@@H]1CO` [Example 252, 4-((1R,2S)-2-(hydroxymethyl)cyclopentylamino)-2-(tetrahydro-2H-pyran-4-ylamino)pyrimidine-5-carboxamide], the IC50 under setting [1] is below 200 nM.

For the molecule `CC[C@]1(O)CCC[C@@H](Nc2nc(N[C@H]3CC[C@H](OC)CC3)ncc2C#N)C1` [Example C-33, 4-((1R,3S)-3-ethyl-3-hydroxycyclohexylamino)-2-((1r,4R)-4-methoxycyclohexylamino) pyrimidine-5-carbonitrile], the IC50 (Table 3, JNK1 IC50 activity level, read-out: Act. Level) is below 200 nM.

Take `CO[C@H]1CC[C@H](Nc2ncc(C(N)=O)c(NC3(C)CCC3)n2)CC1` [Example 402]: under setting [1], the IC50 was below 200 nM.

Turning to `NC(=O)c1cnc(NC2CCc3ccccc32)nc1Nc1ccccc1` (stereo not drawn) [Example B-31, 2-(2,3-dihydro-1H-inden-1-ylamino)-4-(phenylamino)pyrimidine-5-carboxamide], the IC50 under setting [3] is 200 to 800 nM.

As to `NC(=O)c1cnc(N[C@H]2CC[C@H](O)CC2)nc1NC12CCC(C1)C2` [Example 477, 4-(bicyclo[2.1.1]hexan-1-ylamino)-2-((1r,4r)-4-hydroxycyclohexylamino)pyrimidine-5-carboxamide], under setting [1], the IC50 is below 200 nM.

As to `NC(=O)c1cnc(NCC2CCCO2)nc1Nc1ccccc1` (stereo not drawn) [Example B-64, 4-(phenylamino)-2-((tetrahydrofuran-2-yl)methylamino)pyrimidine-5-carboxamide], the IC50 under setting [3] is 200 to 800 nM.

Consider `CCO[C@H]1CC[C@@H](Nc2nc(NC3CCC3)ncc2C(N)=O)CC1` [Example A-135, 2-(cyclobutylamino)-4-((1s,4s)-4-ethoxycyclohexylamino)pyrimidine-5-carboxamide], for which the IC50 under setting [2] is 200 to 800 nM.

Take `NC(=O)c1cnc(N[C@H]2CC[C@H](OCC(F)(F)F)CC2)nc1N[C@@H]1CCCC[C@H](O)C1` [Example A-160, 4-((1R,3S)-3-hydroxycycloheptylamino)-2-((1r,4R)-4-(2,2,2-trifluoroethoxy)cyclohexylamino)pyrimidine-5-carboxamid]: the IC50 under setting [2] is below 200 nM.

With `NC(=O)c1cnc(N[C@H]2CC[C@H](OC3CC3)CC2)nc1NC1CCC1` [Example 434, 4-(cyclobutylamino)-2-((1r,4r)-4-cyclopropoxycyclohexylamino)pyrimidine-5-carboxamide], the IC50 under setting [1] was below 200 nM.

Consider `NC(=O)c1cnc(NC2CCN(Cc3ccccc3)CC2)nc1Nc1ccccc1` [Example B-50, 2-(1-benzylpiperidin-4-ylamino)-4-(phenylamino)pyrimidine-5-carboxamide], for which, under setting [3], the IC50 lay in the range of 200 to 800 nM.

With `NC(=O)c1cnc(N[C@]23CC[C@@](O)(CC2)C3)nc1NC12CC(C1)C2` [Example 458, 4-(bicyclo[1.1.1]pentan-1-ylamino)-2-((1r,4r)-4-hydroxybicyclo[2.2.1]heptan-1-ylamino)pyrimidine-5-carboxamide], the IC50 under setting [1] was below 200 nM.

In the case of `CCO[C@H]1CC[C@H](Nc2ncc(C(N)=O)c(NC(C)(C)CO)n2)CC1` [Example 309, 2-((1r,4r)-4-ethoxycyclohexylamino)-4-(1-hydroxy-2-methylpropan-2-ylamino)pyrimidine-5-carboxamide], the IC50 under setting [1] is below 200 nM.

For `NC(=O)c1cnc(NCCc2ccccc2)nc1Nc1ccccc1` [Example B-71, 2-(phenethylamino)-4-(phenylamino)pyrimidine-5-carboxamide], the IC50 under setting [3] fell in the range of 200 to 800 nM.

For `NC(=O)c1cnc(N[C@@H]2CCc3ncccc3C2)nc1N[C@@H]1CCC[C@H](O)C1` [Example B-76, 4-((1R,3S)-3-hydroxycyclohexylamino)-2-((R)-5,6,7,8-tetrahydroquinolin-6-ylamino)pyrimidine-5-carboxamid], under setting [3], the IC50 was below 200 nM.

Consider `NC(=O)c1cnc(NCc2ccco2)nc1Nc1ccccc1` [Example B-65, 2-(furan-2-ylmethylamino)-4-(phenylamino)pyrimidine-5-carboxamide], for which, under setting [3], the IC50 fell in the range of 1000 to 10000 nM.

In the case of `CC(C)(Nc1nc(N[C@@H]2CCC[C@@H](O)C2)ncc1C(N)=O)C1CC1` [Example 465, 4-(2-cyclopropylpropan-2-ylamino)-2-((1R,3R)-3-hydroxycyclohexylamino)pyrimidine-5-carboxamide], under setting [1], the IC50 was below 200 nM.

For `CC1(C)CCC(Nc2nc(NC34CC(C3)C4)ncc2C(N)=O)CC1O` (stereo not drawn) [Example 432, 2-(bicyclo[1.1.1]pentan-1-ylamino)-4-(3-hydroxy-4,4-dimethylcyclohexylamino)pyrimidine-5-carboxamide], the IC50 under setting [1] was below 200 nM.

On to `CC(C)Nc1nc(NC(C)(C)C)ncc1C(N)=O` [Example 227, 2-(tert-butylamino)-4-(isopropylamino)pyrimidine-5-carboxamide], for which the IC50 under setting [1] was in the range of 200 to 800 nM.

On to `CCO[C@H]1CC[C@H](Nc2ncc(C(N)=O)c(NC3(C)CCC3)n2)CC1` [Example 401, 2-((1r,4r)-4-ethoxycyclohexylamino)-4-(1-methylcyclobutylamino)pyrimidine-5-carboxamide], for which, under setting [1], the IC50 is below 200 nM.

With `C[C@H]1C[C@H](Nc2nc(N[C@H]3CC[C@H](O)CC3)ncc2C(N)=O)C1` [Example 325, 2-((1r,4r)-4-hydroxycyclohexylamino)-4-((1r,3r)-3-methylcyclobutylamino)pyrimidine-5-carboxamide], under setting [1], the IC50 is below 200 nM.

The values are drawn from US12129237B2, “Substituted diaminocarboxamide and diaminocarbonitrile pyrimidines, compositions thereof, and methods of treatment therewith” (SIGNAL PHARMACEUTICALS, LLC, priority 2011, dated 2024).
